Key:
C57BL/6J mice = experiment: Glucokinase activator in vivo screen protocol (blood glucose after oral dosing); conditions: oral gavage 50 mg/kg after two hour fast, blood glucose at 1, 2, 4 and 6 hours post dose, active = p≦0.05 decrease for two consecutive time points
Method: Glucokinase Activator in vivo Screen Protocol
C57BL/6J. mice are orally dosed via gavage with Glucokinase (GK) activator at 50 mg/kg body weight following a two hour fasting period. Blood glucose determinations are made five times during the six hour post-dose study period.
Mice (n=6) are weighed and fasted for a two hour period prior to oral treatment. GK activators are formulated at 6.76 mg/ml in Gelucire vehicle (Ethanol:Gelucire44/14:PEG400q.s. 4:66:30 v/w/v. Mice are dosed orally with 7.5 μl formulation per gram of body weight to equal a 50 mg/kg dose. Immediately prior to dosing, a pre dose (time zero) blood glucose reading is acquired by snipping off a small portion of the animals tail (˜1 mm) and collecting 15 μl blood into a heparinized capillary tube for analysis. Following GK activator administration, additional blood glucose readings are taken at 1, 2, 4 and 6 hours post dose from the same tail wound. Results are interpreted by comparing the mean blood glucose values of six vehicle treated mice with six GK activator treated mice over the six hour study duration.

| SMILES | melting point | glucokinase activator in vivo activity (decrease in blood glucose compared to vehicle) (C57BL/6J mice) |
| --- | --- | --- |
| CS(=O)(=O)c1ccc(/C(=C\C2CCCC2)C(=O)Nc2ncc(Br)s2)cc1 [Example 7, (E)-N-(5-Bromo-thiazol-2-yl)-3-cyclopentyl-2-(4-methanesulfonyl-phenyl)-acrylamide] | 202 to 205 °C | – |
| CS(=O)(=O)c1ccc(/C(=C\C2CCCCCC2)C(=O)Nc2nccs2)cc1 [Example 5, (E)-3-Cycloheptyl-2-(4-methanesulfonyl-phenyl)-N-thiazol-2-yl-acrylamide] | 163 to 165 °C | excellent glucokinase activator in vivo activity |
| CS(=O)(=O)c1ccc(/C(=C\C2CCCC2)C(=O)Nc2ccccn2)cc1Cl [Example 19, (E)-2-(3-Chloro-4-methanesulfonyl-phenyl)-3-cyclopentyl-N-pyridin-2-yl-acrylamide] | – | excellent glucokinase activator in vivo activity |
| CS(=O)(=O)c1ccc(/C(=C\C2CCCC2)C(=O)Nc2nccs2)cc1 [Example 3, (E)-3-Cyclopentyl-2-(4-methanesulfonyl-phenyl)-N-thiazol-2-yl-acrylamide] | 172 to 173 °C | excellent glucokinase activator in vivo activity |
| CNC(=O)NC(=O)/C(=C/C1CCCCC1)c1ccc(S(C)(=O)=O)c(C(F)(F)F)c1 [Example 27, (E)-1-[3-Cyclohexyl-2-(4-methanesulfonyl-3-trifluoromethyl-phenyl)-acryloyl]-3-methyl-urea] | 199 to 202 °C | – |
| COC(=O)c1csc(NC(=O)/C(=C/CC2CCCC2)c2ccc(S(C)(=O)=O)cc2)n1 [Example 22, (E)-2-[4-Cyclopentyl-2-(4-methanesulfonyl-phenyl)-but-2-enoylamino]-thiazole-4-carboxylic acid methyl ester] | 85 to 90 °C | excellent glucokinase activator in vivo activity |
| CC/C=C(/C(=O)Nc1nccs1)c1ccc(S(C)(=O)=O)cc1 [Example 1, (E)-2-(4-Methanesulfonyl-phenyl)-pent-2-enoic acid thiazol-2-ylamide] | 155 to 158 °C | – |
| O=C(Nc1nccs1)/C(=C/C1CCCC1)c1ccc(Cl)c(Cl)c1 [Example 8, (E)-3-Cyclopentyl-2-(3,4-dichloro-phenyl)-N-thiazol-2-yl-acrylamide] | 57 to 59 °C | – |
| CS(=O)(=O)c1ccc(/C(=C\C2CCCCC2)C(=O)Nc2nccs2)cc1C(F)(F)F [Example 12, (E)-3-Cyclohexyl-2-(4-methanesulfonyl-3-trifluoromethyl-phenyl)-N-thiazol-2-yl-acrylamide] | – | excellent glucokinase activator in vivo activity |
| CS(=O)(=O)c1ccc(/C(=C\C2CCCCC2)C(=O)Nc2nccs2)cc1 [Example 4, (E)-3-Cyclohexyl-2-(4-methanesulfonyl-phenyl)-N-thiazol-2-yl-acrylamide] | – | excellent glucokinase activator in vivo activity |
| CS(=O)(=O)c1ccc(/C(=C\C2CCCCC2)C(=O)Nc2nccs2)cc1[N+](=O)[O-] [Example 14, (E)-3-Cyclohexyl-2-(4-methanesulfonyl-3-nitro-phenyl)-N-thiazol-2-yl-acrylamide] | – | excellent glucokinase activator in vivo activity |
| CS(=O)(=O)c1ccc(/C(=C\CC2CCCC2)C(=O)Nc2nccs2)cc1 [Example 21, (E)-4-Cyclopentyl-2-(4-methanesulfonyl-phenyl)-but-2-enoic acid thiazol-2-ylamide] | 173 to 176 °C | excellent glucokinase activator in vivo activity |
| CS(=O)(=O)c1ccc(/C(=C\C2CCCC2)C(=O)Nc2nccs2)cc1Cl [Example 9, (E)-2-(3-Chloro-4-methanesulfonyl-phenyl)-3-cyclopentyl-N-thiazol-2-yl-acrylamide] | – | excellent glucokinase activator in vivo activity |
| CS(=O)(=O)c1ccc(/C(=C\CC2CCCC2)C(=O)Nc2nccs2)cc1C(F)(F)F [Example 25, (E)-4-Cyclopentyl-2-(4-methanesulfonyl-3-trifluoromethyl-phenyl)-but-2-enoic acid thiazol-2-ylamide] | – | excellent glucokinase activator in vivo activity |
| CS(=O)(=O)c1ccc(/C(=C\C2CCCCCC2)C(=O)Nc2ncc(Br)s2)cc1 [Example 16, (E)-N-(5-Bromo-thiazol-2-yl)-3-cycloheptyl-2-(4-methanesulfonyl-phenyl)-acrylamide] | 159 to 163 °C | excellent glucokinase activator in vivo activity |
| CNC(=O)NC(=O)/C(=C/C(C)C)c1ccc(Cl)c(Cl)c1 [Example 26, (E)-1-[2-(3,4-Dichloro-phenyl)-4-methyl-pent-2-enoyl]-3-methyl-urea] | 177 to 178 °C | – |
| CS(=O)(=O)c1ccc(/C(=C\C2CCCCC2)C(=O)Nc2ccc(Br)cn2)cc1C(F)(F)F [Example 20, (E)-N-(5-Bromo-pyridin-2-yl)-3-cyclohexyl-2-(4-methanesulfonyl-3-trifluoromethyl-phenyl)-acrylamide] | – | excellent glucokinase activator in vivo activity |
